Test results taken from patent US20220096538A1, “PHARMACEUTICAL COMPOSITIONS AND METHODS FOR PREVENTION AND/OR TREATMENT OF INFLAMMATION” (priority 2020, published 2022).
Values joined by “and” are separate entries in the source; they are usually repeats but may differ in a detail not shown here. Equal values may be shown once.

How the values were obtained:
[1] = cited from earlier work; for Approximate Equivalent Dose: equivalent to 0.75 mg dexamethasone
[2] = system: LPS-GalN induced liver injury; test: LPS-GalN model, treatment 2 h post LPS-GalN: liver histopathological score
[3] = system: LPS-GalN induced acute lung injury; test: LPS-GalN model, treatment 2 h post LPS-GalN: lung histopathological (ALI) score; conditions: for Mean±SE ALI score: scale 0 to 4
LPS-GalN challenged mice = test: LPS-GalN model of fatal cytokine storm and sepsis, treatment 2 h post LPS-GalN: 24 h survival
[4] = low dose RJX, standard dose DEX, alone or combined, 2 h post LPS-GalN
[5] = DEX 0.1 mg/kg i.p. 2 h post LPS-GalN, n=6
[6] = DEX 0.6 mg/kg i.p. 2 h post LPS-GalN, n=6
[7] = DEX 6.0 mg/kg i.p. 2 h post LPS-GalN, n=6
[8] = RJX 0.7 ml/kg, DEX 0.6 mg/kg, alone or combined, 2 h post LPS-GalN

SMILES: C[C@]12CCC(=O)C=C1CC[C@@H]1[C@@H]2C(=O)C[C@@]2(C)[C@H]1CC[C@]2(O)C(=O)CO [Cortisone]
- Approximate Equivalent Dose [1]: 25 mg

SMILES: C[C@]12CCC(=O)C=C1CC[C@H]1[C@@H]3CC[C@](O)(C(=O)CO)[C@@]3(C)C[C@H](O)[C@@]12F [Fludrocortisone]
- Anticipated Half-life [1]: 12 to 26 h and 12 to 36 h

SMILES: C[C@@H]1C[C@H]2[C@@H]3CCC4=CC(=O)C=C[C@]4(C)[C@@]3(F)[C@@H](O)C[C@]2(C)[C@@]1(O)C(=O)CO [DEX, dexamethasone]
- histopathological liver damage score (Mean±SE) ([2]; DEX 0.1 mg/kg): 3.3±0.2
- histopathological liver damage score (Mean±SE) ([2]; DEX 0.6 mg/kg): 2.7±0.2
- liver score median ([2]; DEX 0.6 mg/kg): 3
- histopathological liver damage score (Mean±SE) ([2]; DEX 6.0 mg/kg): 2.3±0.2
- liver score median ([2]; DEX 6.0 mg/kg): 3
- liver histopathological scores, range ([2]; DEX (0.1)): 3-4
- Liver Histopathological Score: ≥3 (severe damage or more), percent of mice [2, 4]: 50%
- lung histopathological ALI score, Median ([3]; DEX 0.1 mg/kg): 3.5
- lung histopathological ALI scores, range ([3]; DEX 0.1 mg/kg): 3-4
- Mean±SE ALI score ([3]; DEX 0.1 mg/kg): 3.5±0.2
- lung histopathological ALI score, Median ([3]; DEX 0.6 mg/kg): 3
- lung histopathological ALI scores, range ([3]; DEX 0.6 mg/kg): 2-4
- Mean±SE ALI score ([3]; DEX 0.6 mg/kg): 2.8±0.3
- lung histopathological ALI score, Median ([3]; DEX 6.0 mg/kg): 2
- lung histopathological ALI scores, range ([3]; DEX 6.0 mg/kg): 1-3
- Mean±SE ALI score ([3]; DEX 6.0 mg/kg): 1.8±0.3
- Lung Histopathological Score: ≥3 (severe damage or more), percent of mice [3, 4]: 50%
- ALI score of a representative mouse ([3]; single dose at 2 hours post-LPS-GalN, sacrificed at 24 hours, low dose RJX, high dose DEX or both): 2
- Censored (LPS-GalN challenged mice; [5]): 1
- Events (LPS-GalN challenged mice; [5]): 5
- Median (survival) (LPS-GalN challenged mice; [5]): 5.1 h
- Proportion (events; 24-h mortality) (LPS-GalN challenged mice; [5]): 83.3%
- Censored (LPS-GalN challenged mice; [6]): 3
- Events (LPS-GalN challenged mice; [6]): 3
- Median (survival) (LPS-GalN challenged mice; [6]): 15.0 h
- Proportion (events; mortality) (LPS-GalN challenged mice; [6]): 50.0%
- Censored (LPS-GalN challenged mice; [7]): 4
- Events (LPS-GalN challenged mice; [7]): 2
- Proportion (events; mortality) (LPS-GalN challenged mice; [7]): 33.3%
- Censored (LPS-GalN challenged mice; RJX 0.7 ml/kg (6-fold diluted 4.2 mL/kg), DEX 0.6 mg/kg, alone or combined, 2 h post LPS-GalN): 5
- Events (LPS-GalN challenged mice; [8]): 5
- Median (survival) (LPS-GalN challenged mice; [8]): 17.6 h
- Proportion (events) (LPS-GalN challenged mice; [8]): 50.0%

SMILES: C[C@]12C=CC(=O)C=C1CC[C@@H]1[C@@H]2[C@@H](O)C[C@@]2(C)[C@H]1CC[C@]2(O)C(=O)CO [Prednisolone]
- Approximate Equivalent Dose [1]: 5 mg

SMILES: C[C@]12C=CC(=O)C=C1CC[C@H]1[C@@H]3C[C@@H](O)[C@](O)(C(=O)CO)[C@@]3(C)C[C@H](O)[C@@]12F [Triamcinolone]
- Approximate Equivalent Dose [1]: 4 mg

SMILES: C[C@]12CCC(=O)C=C1CC[C@@H]1[C@@H]2[C@@H](O)C[C@@]2(C)[C@H]1CC[C@]2(O)C(=O)CO [Hydrocortisone]
- Approximate Equivalent Dose [1]: 20 mg
